Assay results from patent US4159373A, “7-Acyl-3-(sulfonic acid and sulfamoyl substituted tetrazolyl thiomethyl) cephalosporins” (SmithKline Corporation, priority 1978, dated 1979).
Converted amounts (≈) assume the structure as drawn. Where two headings read alike, the source gives them in different places.

Legend:
E. coli 12140 = experiment: In vivo mouse protection, E. coli 12140; conditions: Table 2, E. coli 12140, read-out: ED50 in vivo
Serra. marc ATCC 13880 = experiment: MIC in vitro; format: cell-based, Serratia marcescens; conditions: for MIC: Serratia marcescens; for MIC in vitro: Table 1
Method: (§1) The compounds of Formula I have exceptional antibacterial activity against both Gram-positive and Gram-negative organisms. Minimum inhibitory concentrations (MIC's) ranged from 0.2 to <200 μg./ml. in in vitro testing.

[1] = tested on: Entero. aerog. ATCC 13048; experiment: MIC in vitro; format: cell-based, Enterobacter aerogenes; conditions: Klebsiella aerogenes
Method: as §1

Strep. Faecalis HH 34358 = experiment: MIC in vitro; format: cell-based; conditions: Table 1, Strep. Faecalis HH 34358; for MIC: Enterococcus faecalis, read-out: MIC in vitro
Method: as §1

Salmonella ATCC 12176 = experiment: MIC in vitro; format: cell-based; conditions: for MIC: Salmonella; for MIC in vitro: Table 1
Method: as §1

Proteus morgani 179 = experiment: MIC in vitro; format: cell-based; conditions: for MIC: Table 1, read-out: MIC in vitro
Method: as §1

E. coli SK 12140 = experiment: MIC in vitro; format: cell-based; conditions: Escherichia coli, E. coli SK 12140
Method: as §1

E. coli HH 33779 = experiment: MIC in vitro; format: cell-based; conditions: for MIC: Escherichia coli; for MIC in vitro: Table 1
Method: as §1

S. aureus HH 127 = experiment: MIC in vitro; format: cell-based; conditions: Staphylococcus aureus, S. aureus HH 127
Method: as §1

S. aureus SK 23390 = experiment: MIC in vitro; format: cell-based; conditions: S. aureus SK 23390; for MIC: Staphylococcus aureus, SK23390, Table 1, read-out: MIC in vitro
Method: as §1

S. villaluz = experiment: MIC in vitro; format: cell-based; conditions: Table 1
Method: as §1

Kleb. pneumo. SK 4200 = experiment: MIC in vitro; format: cell-based, Kleb. pneumoniae; conditions: Table 1, Kleb. pneumo. SK 4200; for MIC: Klebsiella pneumoniae, read-out: MIC in vitro
Method: as §1

Kleb. pneumo. SK 1200 = experiment: MIC in vitro; format: cell-based, Kleb. pneumoniae; conditions: Klebsiella pneumoniae, read-out: MIC in vitro
Method: as §1

Entero. cloacae HH 31254 = experiment: MIC in vitro; format: cell-based; conditions: Enterobacter cloacae
Psuedo. sp. HH 63 = experiment: MIC in vitro; format: cell-based, Pseudo. aeruginosa; conditions: Pseudomonas aeruginosa; Table 1; Psuedo. sp. HH 63; read-out: MIC in vitro
Method: as §1

Kleb. pneumo. 4200 = experiment: In vivo mouse protection, Kleb. pneumo. 4200; conditions: read-out: ED50 in vivo
shigella HH 117 = experiment: MIC in vitro; format: cell-based
Method: as §1

[2] = Escherichia coli, 12140, sc, s.c.
[3] = ATCC13880, read-out: MIC in vitro
[4] = ATCC12176, Table 1, read-out: MIC in vitro
[5] = SK12140, read-out: MIC in vitro, Table 1
[6] = HH127, Table 1, read-out: MIC in vitro
[7] = HH31254, read-out: MIC in vitro, Table 1
[8] = sc, Table 2, Kleb. pneumo. 4200, s.c.
[9] = ATCC13880, Table 1, Serra. marc ATCC 13880, read-out: MIC in vitro
[10] = SK12140, Table 1, read-out: MIC in vitro
[11] = HH33779, Table 1, E. coli HH 33779, read-out: MIC in vitro
[12] = HH31254, Table 1, read-out: MIC in vitro
[13] = HH117, Table 1, shigella HH 117, read-out: MIC in vitro
[14] = Escherichia coli, 12140, po, p.o.
[15] = ATCC13048, Table 1, Entero. aerog. ATCC 13048, read-out: MIC in vitro

## NCc1ccccc1CC(=O)NC1C(=O)N2C(C(=O)O)=C(CSc3nnnn3CS(=O)(=O)O)CS[C@H]12 (some centres unmarked) [XI, 7-(o-aminomethylphenylacetamido)-3-(1-sulfomethyltetrazol-5-ylthiomethyl)-3-cephem-4-carboxylic acid]
E. coli 12140; [2]
  ED50: 21.5 mg/kg
Serra. marc ATCC 13880; [3]
  MIC: 6.3 µg/mL (≈ 11.3 µM)
[1]; ATCC13048, read-out: MIC in vitro
  MIC: 0.8 µg/mL (≈ 1.44 µM)
Strep. Faecalis HH 34358
  MIC: 25 µg/mL (≈ 45 µM)
Salmonella ATCC 12176; [4]
  MIC: ≤ 0.1 µg/mL
Proteus morgani 179
  MIC: 50 µg/mL (≈ 90 µM)
E. coli SK 12140; [5]
  MIC: 0.2 µg/mL (≈ 0.36 µM)
E. coli HH 33779; HH33779, read-out: MIC in vitro
  MIC: 0.4 µg/mL (≈ 0.72 µM)
S. aureus HH 127; [6]
  MIC: 1.6 µg/mL (≈ 2.88 µM)
S. aureus SK 23390
  MIC: 1.6 µg/mL (≈ 2.88 µM)
S. villaluz
  MIC: 200 µg/mL (≈ 360 µM)
Kleb. pneumo. SK 4200
  MIC: ≤ 0.1 µg/mL
Kleb. pneumo. SK 1200; Table 1, Kleb. pneumo. SK 1200
  MIC: ≤ 0.1 µg/mL
Entero. cloacae HH 31254; [7]
  MIC: 0.8 µg/mL (≈ 1.44 µM)
Psuedo. sp. HH 63
  MIC: > 200 µg/mL

## O=C(CSC(F)(F)F)NC1C(=O)N2C(C(=O)O)=C(CSc3nnnn3CS(=O)(=O)O)CSC12 (centres unmarked) [VII, 7-Trifluoromethylthioacetamido-3-(1-sulfomethyltetrazol-5-ylthiomethyl)-3-cephem-4-carboxylic acid]
E. coli 12140; [2]
  ED50: 0.86 mg/kg
Kleb. pneumo. 4200; [8]
  ED50: 0.24 mg/kg
Serra. marc ATCC 13880; [9]
  MIC: 200 µg/mL (≈ 363 µM)
Serra. marc ATCC 13880; Serra. marc ATCC 13880
  MIC in vitro: 100 µg/mL (≈ 182 µM)
Strep. Faecalis HH 34358
  MIC: 50 µg/mL (≈ 90.8 µM)
Salmonella ATCC 12176; ATCC12176, read-out: MIC in vitro, Table 1
  MIC: 0.4 µg/mL (≈ 0.727 µM)
Salmonella ATCC 12176
  MIC in vitro: 0.2 µg/mL (≈ 0.363 µM)
Proteus morgani 179
  MIC: 100 µg/mL (≈ 182 µM)
E. coli SK 12140; [5]
  MIC: 0.4 µg/mL (≈ 0.727 µM)
E. coli SK 12140; [10]
  MIC: 0.8 µg/mL (≈ 1.45 µM)
E. coli HH 33779; [11]
  MIC: 3.1 µg/mL (≈ 5.63 µM)
E. coli HH 33779; E. coli HH 33779
  MIC in vitro: 1.6 µg/mL (≈ 2.91 µM)
S. aureus HH 127; [6]
  MIC: 0.8 µg/mL (≈ 1.45 µM)
S. aureus SK 23390
  MIC: 0.8 µg/mL (≈ 1.45 µM)
S. aureus SK 23390; Table 1
  MIC in vitro: 0.4 µg/mL (≈ 0.727 µM)
Shigella HH 117; Shigella, HH117, read-out: MIC in vitro
  MIC: 0.8 µg/mL (≈ 1.45 µM)
Kleb. pneumo. SK 4200
  MIC: 0.4 µg/mL (≈ 0.727 µM)
  MIC in vitro: 0.2 µg/mL (≈ 0.363 µM)
Kleb. pneumo. SK 1200; Table 1, Kleb. pneumo. SK 1200
  MIC: 0.2 µg/mL (≈ 0.363 µM)
Entero. cloacae HH 31254; [12]
  MIC: 3.1 µg/mL (≈ 5.63 µM)
Entero. cloacae HH 31254; [7]
  MIC: 0.8 µg/mL (≈ 1.45 µM)
Psuedo. sp. HH 63
  MIC: > 200 µg/mL

## O=C(O)C1=C(CSc2nnnn2CS(=O)(=O)O)CS[C@@H]2C(NC(=O)[C@H](O)c3ccccc3)C(=O)N12 (stereo partly drawn) [I, 7-D-Mandelamido-3-(1-sulfomethyltetrazol-5-ylthiomethyl)-3-cephem-4-carboxylic acid]
E. coli 12140; [2]
  ED50: 1.56 mg/kg
Kleb. pneumo. 4200; [8]
  ED50: 0.28 mg/kg
Serra. marc ATCC 13880; [9]
  MIC: 12.5 µg/mL (≈ 23 µM)
Serra. marc ATCC 13880; Serra. marc ATCC 13880
  MIC in vitro: 13 µg/mL (≈ 24 µM)
Strep. Faecalis HH 34358
  MIC: 50 µg/mL (≈ 92.2 µM)
  MIC in vitro: 100 µg/mL (≈ 184 µM)
Salmonella ATCC 12176; [4]
  MIC: 0.8 µg/mL (≈ 1.47 µM)
Salmonella ATCC 12176
  MIC in vitro: 0.4 µg/mL (≈ 0.737 µM)
Proteus morgani 179; Table 1
  MIC in vitro: 3.1 µg/mL (≈ 5.71 µM)
Proteus morgani 179
  MIC: 3 µg/mL (≈ 5.53 µM)
E. coli SK 12140; [10]
  MIC: 0.8 µg/mL (≈ 1.47 µM)
E. coli HH 33779; [11]
  MIC: 3.1 µg/mL (≈ 5.71 µM)
E. coli HH 33779; E. coli HH 33779
  MIC in vitro: 1.6 µg/mL (≈ 2.95 µM)
S. aureus HH 127; HH127, read-out: MIC in vitro, Table 1
  MIC: 3.1 µg/mL (≈ 5.71 µM)
S. aureus HH 127; [6]
  MIC: 6 µg/mL (≈ 11.1 µM)
Shigella HH 117; [13]
  MIC: 0.4 µg/mL (≈ 0.737 µM)
Kleb. pneumo. SK 4200
  MIC: 0.8 µg/mL (≈ 1.47 µM)
Entero. cloacae HH 31254; [12]
  MIC: 3 µg/mL (≈ 5.53 µM)
Entero. cloacae HH 31254; [7]
  MIC: 0.8 µg/mL (≈ 1.47 µM)
Psuedo. sp. HH 63
  MIC: > 200 µg/mL

## NS(=O)(=O)CCn1nnnc1SCC1=C(C(=O)O)N2C(=O)C(NC(=O)[C@H](O)c3ccccc3)[C@H]2SC1 (stereo partly drawn) [III, 7-D-mandelamido-3-[1-(2-sulfamoylethyl)tetrazol-5-ylthiomethyl]-3-cephem-4-carboxylic acid]
E. coli 12140; [14]
  ED50: 25 mg/kg
E. coli 12140; [2]
  ED50: 0.7 mg/kg
Kleb. pneumo. 4200; po, Table 2, Kleb. pneumo. 4200, p.o.
  ED50: 21.5 mg/kg
Kleb. pneumo. 4200; [8]
  ED50: 0.68 mg/kg
Serra. marc ATCC 13880; [3]
  MIC: 6.3 µg/mL (≈ 11.3 µM)
[1]; [15]
  MIC: 3.1 µg/mL (≈ 5.58 µM)
Strep. Faecalis HH 34358
  MIC: 12.5 µg/mL (≈ 22.5 µM)
Salmonella ATCC 12176; [4]
  MIC: 0.4 µg/mL (≈ 0.72 µM)
Proteus morgani 179
  MIC: 3.1 µg/mL (≈ 5.58 µM)
E. coli SK 12140; [10]
  MIC: 0.8 µg/mL (≈ 1.44 µM)
E. coli HH 33779; [11]
  MIC: 1.6 µg/mL (≈ 2.88 µM)
S. aureus HH 127; [6]
  MIC: 1.6 µg/mL (≈ 2.88 µM)
S. aureus SK 23390
  MIC: 0.2 µg/mL (≈ 0.36 µM)
Shigella HH 117; [13]
  MIC: 0.2 µg/mL (≈ 0.36 µM)
Kleb. pneumo. SK 4200
  MIC: 1.6 µg/mL (≈ 2.88 µM)
Kleb. pneumo. SK 1200; Table 1, Kleb. pneumo. SK 1200
  MIC: 0.8 µg/mL (≈ 1.44 µM)
Entero. cloacae HH 31254; [7]
  MIC: 0.8 µg/mL (≈ 1.44 µM)
Psuedo. sp. HH 63
  MIC: > 200 µg/mL

## O=C(Cc1cccs1)NC1C(=O)N2C(C(=O)O)=C(CSc3nnnn3CS(=O)(=O)O)CS[C@H]12 (some centres unmarked) [V, 7-(2-thienylacetamido)-3-(1-sulfomethyltetrazol-5-ylthiomethyl)-3-cephem-4-carboxylic acid]
E. coli 12140; [14]
  ED50: > 50 mg/kg
E. coli 12140; [2]
  ED50: 4 mg/kg
Kleb. pneumo. 4200; [8]
  ED50: 0.26 mg/kg
Serra. marc ATCC 13880; [9]
  MIC: 100 µg/mL (≈ 188 µM)
Serra. marc ATCC 13880; Serra. marc ATCC 13880
  MIC in vitro: 200 µg/mL (≈ 376 µM)
[1]; [15]
  MIC: 12.5 µg/mL (≈ 23.5 µM)
Strep. Faecalis HH 34358
  MIC: 25 µg/mL (≈ 46.9 µM)
  MIC in vitro: 50 µg/mL (≈ 93.9 µM)
Salmonella ATCC 12176; [4]
  MIC: 0.8 µg/mL (≈ 1.5 µM)
Proteus morgani 179
  MIC: > 200 µg/mL
E. coli SK 12140; [10]
  MIC: 1.6 µg/mL (≈ 3 µM)
E. coli HH 33779; [11]
  MIC: 6.3 µg/mL (≈ 11.8 µM)
S. aureus HH 127; [6]
  MIC: 0.8 µg/mL (≈ 1.5 µM)
S. aureus SK 23390
  MIC: 0.4 µg/mL (≈ 0.751 µM)
Shigella HH 117; [13]
  MIC: 1.6 µg/mL (≈ 3 µM)
Kleb. pneumo. SK 4200
  MIC: 1.6 µg/mL (≈ 3 µM)
  MIC in vitro: 0.8 µg/mL (≈ 1.5 µM)
Kleb. pneumo. SK 1200
  MIC: 0.4 µg/mL (≈ 0.751 µM)
Entero. cloacae HH 31254; [12]
  MIC: 1.6 µg/mL (≈ 3 µM)
Psuedo. sp. HH 63
  MIC: > 200 µg/mL
